Literature values, collected in patent US6541263B2, “Determination of corticosteroids in human plasma using micromass LC/MS/MS” (Euro-Celtique, S.A. Luxembourg, priority 2001, dated 2003).

Test system: eosinophils
Details: IL-5-mediated survival

## C[C@]12CCC(=O)C=C1CC[C@@H]1[C@@H]2[C@@H](O)C[C@@]2(C)[C@H]1CC[C@]2(O)C(=O)CO [hydrocortisone]
  inhibition of IL-5-mediated eosinophil survival: dose-dependent inhibition
